Assays:
Assay in all cases: relative viability (nuclei count vs DMSO), 5 days (fraction); higher = more cells survive
[1] = compound: C1=CC2=C(C=C(C(=C2N=C1)O)N=NC3=CC4=C(C=C3)C=C(C=C4)S(=O)(=O)O)S(=O)(=O)O + NC(=O)Nc1cc(-c2cccc(F)c2)sc1C(=O)N[C@H]1CCCNC1 [AZD7762] (partner 0.2 µM)
How it was run: (§1)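 Lung cancer cell lines were seeded in 1536-well plates and dosed by pin tool the next day, with either a single drug or a fixed anchor-drug dose combined with five library-drug doses (not always all listed) spaced in √10 steps. Five days later, one step fixed the cells and stained their nuclei (final 0.05% Triton X-100, 1% formaldehyde, 1 ug/ml Hoechst), and nuclei were counted on 4× images. Relative viability is the nuclei count in treated wells divided by the count in vehicle wells, and each value is the median of duplicate plates.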

[2] = compound: C1=CC2=C(C=C(C(=C2N=C1)O)N=NC3=CC4=C(C=C3)C=C(C=C4)S(=O)(=O)O)S(=O)(=O)O + CC(=O)c1c(C)c2cnc(Nc3ccc(N4CCNCC4)cn3)nc2n(C2CCCC2)c1=O [Palbociclib] (partner 0.5 µM)
How it was run: as §1

AT-7519 + Decitabine = compound: O=C(NC1CCNCC1)c1n[nH]cc1NC(=O)c1c(Cl)cccc1Cl [AT-7519] + Nc1ncn([C@H]2C[C@H](O)[C@@H](CO)O2)c(=O)n1 [Decitabine] (partner 2 µM)
How it was run: as §1

AT-7519 + Crizotinib = compound: O=C(NC1CCNCC1)c1n[nH]cc1NC(=O)c1c(Cl)cccc1Cl [AT-7519] + C[C@@H](Oc1cc(-c2cnn(C3CCNCC3)c2)cnc1N)c1c(Cl)ccc(F)c1Cl [Crizotinib] (partner 1 µM)
How it was run: as §1

Cell Line	relative viability ([1]; first compound 0.08 µM)	relative viability ([1]; first compound 0.253 µM)	relative viability ([1]; first compound 0.8 µM)	relative viability ([1]; first compound 2.53 µM)	relative viability ([1]; first compound 8 µM)	relative viability ([2]; first compound 0.08 µM)	relative viability ([2]; first compound 0.253 µM)	relative viability ([2]; first compound 0.8 µM)	relative viability ([2]; first compound 2.53 µM)	relative viability ([2]; first compound 8 µM)	relative viability (AT-7519 + Decitabine; first compound 0.01 µM)	relative viability (AT-7519 + Decitabine; first compound 0.03162 µM)	relative viability (AT-7519 + Decitabine; first compound 0.3162 µM)	relative viability (AT-7519 + Decitabine; first compound 1 µM)	relative viability (AT-7519 + Crizotinib; first compound 0.01 µM)	relative viability (AT-7519 + Crizotinib; first compound 0.03162 µM)	relative viability (AT-7519 + Crizotinib; first compound 0.3162 µM)	relative viability (AT-7519 + Crizotinib; first compound 1 µM)
LU99A	0.433	0.376	0.421	0.35	0.37	0.472	0.43	0.381	0.435	0.42	0.953	0.843	0.791	0.484	0.579	0.539	0.517	0.357
ABC-1	0.741		0.831	0.691	0.667	0.756	0.647	0.659	0.91	0.761	1.22	1.08	0.859	0.926	1.06	1.35	0.591	0.183
NCI-H2170	1.02	1.04	0.89	1.01	0.914	0.469	0.401	0.393	0.438	0.402	0.495	0.454	0.461	0.522	1.16	1.26	1.18	1.18
NCI-H1299															1.03	0.997	0.947	0.31
EBC-1															0.198	0.228	0.191	0.153
NCI-H2347	0.838	0.734	0.846	1.01	0.705	0.459	0.447	0.44	0.482	0.426	0.561	0.59	0.571	0.526	0.627	0.706	0.645	0.573
NCI-H1993	0.906	0.712	0.702	0.845	0.832	0.625	0.669	0.603	0.687	0.763	0.671	0.597	0.543	0.391	0.846	0.82	0.813	0.577
NCI-H322M	0.576	0.625	0.522	0.598	0.71	0.473	0.462	0.501	0.454	0.514	0.654	0.643	0.631	0.554	0.848	0.93	0.892	0.901
NCI-H838	1.01	0.882	0.89	0.965	0.882	0.254	0.216	0.227	0.249	0.26	0.479	0.45	0.383	0.152	0.805	0.826	0.571	0.194
NCI-H1648		0.712			0.717		0.29			0.301	0.427		0.438	0.445				
COR-L23						0.326	0.346	0.274	0.299	0.39	0.455	0.465	0.388	0.197	0.639	0.632	0.653	0.132
COR-L 105						0.391	0.433	0.449	0.426	0.384	0.687	0.682	0.608	0.351	0.823	0.784	0.469	0.289
NCI-H596	1.25	1.12	1.13	1.04	1.17						0.939	0.967	0.789	1.16	0.828	0.962	1.05	0.87
NCI-H2023						0.451	0.395	0.391	0.421	0.309	0.201	0.234	0.209	0.125	0.702	0.697	0.605	0.125
NCI-H1793	0.411	0.407	0.481	0.497	0.455	0.352	0.327	0.283	0.3	0.271	0.517	0.551	0.449	0.378				
NCI-H520						0.247	0.247	0.27	0.237	0.212	0.547	0.492	0.507	0.395	0.753	0.768	0.595	0.269
A549											0.233	0.22	0.28	0.251	0.635	0.867	0.55	0.25
NCI-H1563															0.857	0.809	1.02	0.702
NCI-H1395	0.383	0.404	0.395	0.411	0.358	0.692	0.614	0.616	0.572	0.628	0.658	0.726	0.691	0.582				
NCI-H2009						0.221	0.22	0.245	0.214	0.192	0.395	0.406	0.446	0.309	1.21	1.07	1.12	0.295
NCI-H522	0.783	0.932	0.971	0.787	0.714	0.957	0.981	0.934	0.849	0.923	0.648	0.588	0.662	0.644				
IA-LM															1.02	1.03	0.573	0.0695
SK-LU-1						0.456	0.391	0.344	0.399	0.428	0.602	0.653	0.569	0.501	1.12	0.799	0.713	0.48
NCI-H1703	0.147	0.163	0.13		0.16										0.585	0.59	0.508	0.0921
SW 900	0.597	0.644	0.598	0.588	0.666	0.53	0.58	0.477	0.648	0.579	0.437	0.435	0.422	0.32				
